Measured values: PubChem BioAssay AID330 (DTP/NCI, 2004)
Where “and” joins values, the source holds several entries; their conditions need not be identical. Identical values can stand only once. Inconclusive results and toxic doses are left out. How the source made its calls: active means survival T/C of 150% or more; inactive means T/C below 125% in these data. Peptide text beside a SMILES is read from it.

Test system: P388 leukemia ip, CD2F1 mice, survival T/C
Experiment: NCI In Vivo Anticancer Drug Screen. Data for tumor model P388 Leukemia (intraperitoneal) in CD2F1 (CDF1) mice
Settings: endpoint: median survival time, higher = longer survival
How it was run: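 Mice carrying the transplanted tumor received test compound or vehicle. Survival was recorded in each group, and the value is the treated-group measurement divided by that of the vehicle-treated control group.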

[1] = dose: 60.0 mg/kg/injection, schedule: Q01DX005 (ip), vehicle: saline with Tween-80
[2] = dose: 120.0 mg/kg/injection, schedule: Q01DX005 (ip), vehicle: saline with Tween-80
[3] = dose: 240.0 mg/kg/injection, schedule: Q01DX005 (ip), vehicle: saline with Tween-80
[4] = dose: 50.0 mg/kg/injection, schedule: Q01DX009 (ip), vehicle: saline with Tween-80
[5] = dose: 200.0 mg/kg/injection, schedule: Q01DX009 (ip), vehicle: saline with Tween-80
[6] = dose: 50.0 mg/kg/injection, schedule: Q01DX005 (ip), vehicle: saline
[7] = dose: 100.0 mg/kg/injection, schedule: Q01DX005 (ip), vehicle: saline
[8] = dose: 200.0 mg/kg/injection, schedule: Q01DX005 (ip), vehicle: saline
[9] = dose: 6.25 mg/kg/injection, schedule: Q01DX009 (ip), vehicle: saline
[10] = dose: 12.5 mg/kg/injection, schedule: Q01DX009 (ip), vehicle: saline
[11] = dose: 25.0 mg/kg/injection, schedule: Q01DX009 (ip), vehicle: saline
[12] = dose: 100.0 mg/kg/injection, schedule: Q04DX003 (ip), vehicle: saline
[13] = dose: 50.0 mg/kg/injection, schedule: Q01DX009 (ip), vehicle: saline
[14] = dose: 100.0 mg/kg/injection, schedule: Q01DX009 (ip), vehicle: saline
[15] = dose: 200.0 mg/kg/injection, schedule: Q01DX009 (ip), vehicle: saline
[16] = dose: 400.0 mg/kg/injection, schedule: Q01DX009 (ip), vehicle: saline
[17] = dose: 12.5 mg/kg/injection, schedule: Q01DX009 (ip), vehicle: saline with Tween-80
[18] = dose: 25.0 mg/kg/injection, schedule: Q01DX009 (ip), vehicle: saline with Tween-80
[19] = dose: 50.0 mg/kg/injection, schedule: Q01DX005 (ip), vehicle: saline with Tween-80
[20] = dose: 100.0 mg/kg/injection, schedule: Q01DX005 (ip), vehicle: saline with Tween-80
[21] = dose: 200.0 mg/kg/injection, schedule: Q01DX005 (ip), vehicle: saline with Tween-80
[22] = dose: 50.0 mg/kg/injection, schedule: Q01DX009 (ip), vehicle: Klucel (hydroxypropylcellulose) (HPC)
[23] = dose: 100.0 mg/kg/injection, schedule: Q01DX009 (ip), vehicle: Klucel (hydroxypropylcellulose) (HPC)
[24] = dose: 200.0 mg/kg/injection, schedule: Q01DX009 (ip), vehicle: Klucel (hydroxypropylcellulose) (HPC)
[25] = dose: 6.25 mg/kg/injection, schedule: Q01DX009 (ip), vehicle: saline with Tween-80
[26] = dose: 15.0 mg/kg/injection, schedule: Q01DX005 (ip), vehicle: saline with Tween-80
[27] = dose: 30.0 mg/kg/injection, schedule: Q01DX005 (ip), vehicle: saline with Tween-80
[28] = dose: 50.0 mg/kg/injection, schedule: Q01DX005 (ip), vehicle: Klucel (hydroxypropylcellulose) (HPC)
[29] = dose: 100.0 mg/kg/injection, schedule: Q01DX005 (ip), vehicle: Klucel (hydroxypropylcellulose) (HPC)
[30] = dose: 200.0 mg/kg/injection, schedule: Q01DX005 (ip), vehicle: Klucel (hydroxypropylcellulose) (HPC)

Measured: T/C

O=C(NN=c1c(=O)c2ccccc2c1=O)c1ccncc1
inactive: [1] 112 % of control | [2] 119 % of control | [3] 119 % of control

Cc1ccc(NC(=O)NNC(=O)CNC(=O)Nc2n[nH]c(=S)s2)c(C)c1
inactive: [4] 92 % of control | dose: 100.0 mg/kg/injection, schedule: Q01DX009 (ip), vehicle: saline with Tween-80 86 % of control | [5] 91 % of control

N#Cc1c(-c2ccc(Cl)cc2)cn2c1[nH]c(=O)c1ccccc12
inactive: [1] 107 % of control | [2] 102 % of control | [3] 96 % of control

CC(O)C(N)C(=O)NC(Cc1ccc(O)cc1)C(=O)NC(CO)C(=O)NC(CCCCN)C(=O)O (configuration not stated) (H-TYSK-OH; configuration not given here)
inactive: [6] 99 % of control | [7] 107 % of control | [8] 106 % of control

CCCCC(CC)COP(=O)(CC(CC)CCCC)OCC(CC)CCCC (configuration not stated)
inactive: [9] 109 % of control | [10] 109 % of control | [11] 109 % of control | dose: 25.0 mg/kg/injection, schedule: Q04DX003 (ip), vehicle: saline 100 % of control | dose: 50.0 mg/kg/injection, schedule: Q04DX003 (ip), vehicle: saline 100 % of control | [12] 113 % of control

CC(C)=CCC/C(C)=C/COC(=O)C1C(C=C(C)C)C1(C)C (configuration not stated)
inactive: [13] 100 % of control | [14] 100 % of control | [15] 116 % of control | [16] 101 % of control

CC(=O)OC1CC2CCCCC2CC1[N+](C)(C)C (configuration not stated)
inactive: [17] 108 % of control | [18] 112 % of control | [4] 103 % of control and 94 % of control | [13] 105 % of control

COc1cc([C@@H]2c3cc4c(cc3[C@H](O)[C@H]3COC[C@@H]23)OCO4)cc(OC)c1OC
inactive: [19] 103 % of control | [20] 108 % of control | [21] 103 % of control

O=c1n(-c2ccccc2)c(=O)n2c(=O)n(-c3ccccc3)c(=O)n12
inactive: [22] 105 % of control | [23] 93 % of control | [24] 89 % of control

O=C(c1ccccc1)C1C(c2ccccc2)C2(CCCCC2=O)C(c2ccccc2)CC1(O)c1ccccc1 (configuration not stated)
inactive: dose: 3.12 mg/kg/injection, schedule: Q01DX001 (ip), vehicle: Klucel (hydroxypropylcellulose) (HPC) 98 % of control | dose: 6.25 mg/kg/injection, schedule: Q01DX001 (ip), vehicle: Klucel (hydroxypropylcellulose) (HPC) 86 % of control | dose: 12.5 mg/kg/injection, schedule: Q01DX001 (ip), vehicle: Klucel (hydroxypropylcellulose) (HPC) 86 % of control | dose: 25.0 mg/kg/injection, schedule: Q01DX001 (ip), vehicle: Klucel (hydroxypropylcellulose) (HPC) 86 % of control

C/C=C(\C)C(N)=O
inactive: [13] 90 % of control | [14] 100 % of control | [15] 95 % of control

O=c1cc(CBr)c2ccccc2[nH]1
inactive: [25] 95 % of control | [17] 95 % of control | [18] 86 % of control

COc1cc(NC(C)CN(CC(C)C)C(C)C)c2ncccc2c1 (configuration not stated)
inactive: [6] 104 % of control | [7] 98 % of control

ClC(Cl)(Cl)C(=NNc1ccccc1)C(Cl)(Cl)Cl
inactive: [26] 104 % of control | [27] 104 % of control | [1] 105 % of control and 110 % of control

NC(N)=NCCCC(N)C(=O)NC(CCC(=O)O)C(=O)O (stereo not drawn) (H-Arg-Glu-OH; configuration not given here)
inactive: [11] 91 % of control | [28] 100 % of control | [13] 97 % of control | [29] 100 % of control | [14] 94 % of control | [30] 100 % of control | [15] 103 % of control | [16] 88 % of control

CCC[CH2][Sn]([CH2]CCC)([CH2]CCC)[CH2]S(=O)(=O)O
inactive: [9] 108 % of control | [10] 119 % of control | [14] 116 % of control

COC(=O)C(=O)c1c(C(=O)OC)nc2nnc(N)n2c1-c1cccc([N+](=O)[O-])c1
inactive: [26] 92 % of control | [27] 91 % of control | [1] 88 % of control | [2] 86 % of control

O=[N+]([O-])c1ccccc1-c1ccc2c(O)c(Cl)c(Cl)c(O)c2n1
inactive: dose: 100.0 mg/kg/injection, schedule: Q04DX003 (ip), vehicle: Klucel (hydroxypropylcellulose) (HPC) 104 % of control

Cc1cnc(C=O)c2cccc([N+](=O)[O-])c12
inactive: [22] 105 % of control | [23] 112 % of control

O=C(O)CCC(=O)NCCNC(=O)CCC(=O)O
inactive: [13] 101 % of control | [14] 101 % of control | [15] 104 % of control

Cc1nc(N)c2[nH]cnc2n1
inactive: [28] 99 % of control | [29] 100 % of control | [30] 99 % of control

CCCC(O)C(C)[N+](=O)[O-] (configuration not stated)
inactive: [12] 100 % of control | dose: 200.0 mg/kg/injection, schedule: Q04DX003 (ip), vehicle: saline 95 % of control

CCN(CC)CCOc1ccc(/C(=C(\Cl)c2ccccc2)c2ccccc2)cc1
inactive: dose: 3.13 mg/kg/injection, schedule: Q01DX009 (ip), vehicle: saline with Tween-80 96 % of control | [25] 119 % of control | [17] 117 % of control | [18] 122 % of control | [19] 93 % of control | [4] 104 % of control | [20] 96 % of control | [21] 93 % of control

Cc1cccc(/C=N/Nc2cc(C)c3ccccc3n2)n1
inactive: dose: 12.5 mg/kg/injection, schedule: Q01DX005 (ip), vehicle: saline with Tween-80 100 % of control | dose: 25.0 mg/kg/injection, schedule: Q01DX005 (ip), vehicle: saline with Tween-80 93 % of control | [19] 101 % of control and 104 % of control

CCc1cc(C=C2C(=O)c3ccccc3C2=O)cc(CC)c1O
inactive: dose: 100.0 mg/kg/injection, schedule: Q04DX002 (ip), vehicle: saline 99 % of control | dose: 200.0 mg/kg/injection, schedule: Q04DX002 (ip), vehicle: saline 99 % of control | dose: 400.0 mg/kg/injection, schedule: Q04DX002 (ip), vehicle: saline 99 % of control

O=C(O)c1c(-c2ccccc2)nn(-c2ccccc2)c1-c1ccccc1
inactive: dose: 50.0 mg/kg/injection, schedule: Q04DX003 (ip), vehicle: suspension in saline 108 % of control | dose: 100.0 mg/kg/injection, schedule: Q04DX003 (ip), vehicle: suspension in saline 106 % of control | dose: 200.0 mg/kg/injection, schedule: Q04DX003 (ip), vehicle: suspension in saline 102 % of control

Cc1cc(O)c(N=Nc2cc(C)c(C)cc2[N+](=O)[O-])cc1C
inactive: [22] 109 % of control | [23] 109 % of control | [24] 101 % of control

CCCCCCC(=O)/C=C/c1cccc(OCc2ccc([N+](=O)[O-])cc2)c1
inactive: [17] 86 % of control | [18] 89 % of control | [4] 87 % of control and 91 % of control | [5] 88 % of control

O=C1CCC2CCC1N2 (configuration not stated)
inactive: [6] 100 % of control | [7] 100 % of control | [8] 100 % of control

CC(Cl)CN1CCOC1=O (configuration not stated)
inactive: dose: 12.5 mg/kg/injection, schedule: Q01DX001 (ip), vehicle: saline 106 % of control | dose: 25.0 mg/kg/injection, schedule: Q01DX001 (ip), vehicle: saline 96 % of control | dose: 50.0 mg/kg/injection, schedule: Q01DX001 (ip), vehicle: saline 105 % of control | dose: 100.0 mg/kg/injection, schedule: Q01DX001 (ip), vehicle: saline 102 % of control

Oc1c(Cl)cc(Cl)cc1/C=N/Nc1ccc2ccccc2n1
inactive: dose: 50.0 mg/kg/injection, schedule: Q04DX003 (ip), vehicle: saline with Tween-80 89 % of control | dose: 100.0 mg/kg/injection, schedule: Q04DX003 (ip), vehicle: saline with Tween-80 94 % of control | dose: 200.0 mg/kg/injection, schedule: Q04DX003 (ip), vehicle: saline with Tween-80 100 % of control
